Numbers after ± are expanded uncertainties.

Here are results for three compounds from the NIST ThermoML archive (doi:10.1016/j.tca.2016.03.003).

Data set [1] in a line: Molar enthalpy of transition or fusion. The note with it: DSC.
The conditions of data set [2]: DSC. Background: Differential scanning calorimetry records heat flow against a reference as temperature is scanned.

For the compound `CC(C)(C)CO` [2,2-dimethyl-1-propanol], the “Molar enthalpy of transition or fusion” value in data set [1] (Crystal 1) was 3.92 ± 0.48 kJ/mol; in data set [1] (Crystal 2) it was 4.15 ± 0.48 kJ/mol. In addition, the Triple point temperature is on record as 329.2 ± 1.2 K in data set [2] (Crystal 1) and 237.5 ± 1.2 K in data set [2] (Crystal 2).
In the case of `CC(C)(C)Cl` [2-chloro-2-methylpropane], the Triple point temperature in data set [2] (Crystal 1) came to 244.4 ± 1.2 K; in data set [2] (Crystal 2), 219.5 ± 1.2 K; in data set [2] (Crystal 3), 217.7 ± 1.2 K; in data set [2] (Crystal 4), 184.8 ± 1.2 K.
As to `ClC(Cl)(Cl)Cl` [tetrachloromethane], the Triple point temperature in data set [2] (Crystal 1) came to 250.4 ± 1.2 K; in data set [2] (Crystal 2) it was 226.1 ± 1.2 K; in data set [2] (Metastable crystal), 245.2 ± 1.2 K.
